What was measured:
HCT-116 = experiment: Tested for antiproliferative activity against HCT116 colorectal human carcinoma cell using WST-1 assay; type: functional, cell-based
[1] = Tested for inhibitory concentration required to inhibit 50% of histone deacetylase (HDAC) purified from human T cell leukemia Jurkat cell
[2] = Tested for inhibitory concentration required to inhibit 50% of histone deacetylase (HDAC) from human T cell leukemia Jurkat cell; type: cell-based

O=C(NCc1ccc(C(=O)NO)cc1)NC12CC3CC(CC(C3)C1)C2
IC50 (HCT-116): 112 µM

O=C(NO)c1ccc(CNC(=O)c2cccc3ccccc23)cc1
IC50 [1]: 0.83 µM | IC50 (HCT-116): 9.7 µM

O=C(NCC1CCC(C(=O)NO)CC1)c1ccc(-c2ccccc2)cc1 (stereo not drawn)
IC50 [1]: 0.31 µM | IC50 (HCT-116): 4.7 µM

O=C(NO)c1ccc(CNC(=O)c2ccc(-c3ccccc3)cc2)cc1
IC50 [1]: 0.24 µM | IC50 (HCT-116): 3.2 µM

Nc1ccccc1NC(=O)c1ccc(CNC(=O)OCc2cccnc2)cc1 [ENTINOSTAT]
IC50 (HCT-116): 5.4 µM

CC(/C=C/C(=O)NO)=C\[C@@H](C)C(=O)c1ccc(N(C)C)cc1 [TRICHOSTATIN]
IC50 [2]: 0.0033 µM

O=C(NCC1CCC(C(=O)NO)CC1)NC12CC3CC(CC(C3)C1)C2 (stereo not drawn)
IC50 (HCT-116): 20.9 µM

O=C(NO)C1CCC(CNS(=O)(=O)c2ccccc2)CC1 (stereo not drawn)
IC50 (HCT-116): 77.9 µM

O=C(NO)c1ccc(CNC(=O)c2ccc3ccccc3c2)cc1
IC50 [1]: 0.044 µM | IC50 (HCT-116): 0.7 µM

From ChEMBL document CHEMBL1135106 (Bioorg Med Chem Lett, 2002)
